Reference: US10167279B2 (NOVARTIS AG, priority 2014, dated 2019)
pIC50: −log10 of the molar value.

Target: C-Raf FL (Homo sapiens (Human), UniProt P04049, Y340E/Y341E)
Test: In vitro Raf activity determination (Alpha Screen, phospho-MEK), C-Raf FL (full length, Y340E/Y341E)
Format: biochemical
Conditions: ATP 1 μM; 60 min pre-incubation; 1 hour reaction; column head does not say FL or TR
Outline: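 Sf9-expressed C-Raf incubated with biotinylated kinase-dead MEK1 (K97R) in 50 mM Tris pH 7.5, 15 mM MgCl2, 0.01% BSA, 1 mM DTT with compound, 60 min at room temperature. Phospho-MEK detected by anti-p-MEK AlphaScreen luminescence; IC50 by non-linear regression.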

Sequence of C-Raf FL (P04049 whole entry Y340E/Y341E): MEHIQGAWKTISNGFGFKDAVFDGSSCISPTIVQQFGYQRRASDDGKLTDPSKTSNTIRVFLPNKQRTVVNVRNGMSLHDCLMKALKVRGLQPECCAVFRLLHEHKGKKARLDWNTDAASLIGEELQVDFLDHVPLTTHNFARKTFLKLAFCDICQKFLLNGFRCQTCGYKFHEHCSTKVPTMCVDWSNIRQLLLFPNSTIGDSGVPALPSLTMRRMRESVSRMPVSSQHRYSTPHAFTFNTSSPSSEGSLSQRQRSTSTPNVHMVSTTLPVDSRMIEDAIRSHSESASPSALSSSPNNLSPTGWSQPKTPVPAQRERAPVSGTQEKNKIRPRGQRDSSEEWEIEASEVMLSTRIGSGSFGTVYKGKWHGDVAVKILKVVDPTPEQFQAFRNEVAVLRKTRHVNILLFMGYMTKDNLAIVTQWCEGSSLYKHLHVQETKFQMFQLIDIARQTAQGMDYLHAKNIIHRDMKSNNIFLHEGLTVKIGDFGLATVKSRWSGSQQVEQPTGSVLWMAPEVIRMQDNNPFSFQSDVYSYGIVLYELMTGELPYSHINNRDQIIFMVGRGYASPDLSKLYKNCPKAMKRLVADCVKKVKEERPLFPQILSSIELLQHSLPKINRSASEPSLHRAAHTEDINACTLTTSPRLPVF
Sequence of C-Raf FL (P63104 whole entry partner): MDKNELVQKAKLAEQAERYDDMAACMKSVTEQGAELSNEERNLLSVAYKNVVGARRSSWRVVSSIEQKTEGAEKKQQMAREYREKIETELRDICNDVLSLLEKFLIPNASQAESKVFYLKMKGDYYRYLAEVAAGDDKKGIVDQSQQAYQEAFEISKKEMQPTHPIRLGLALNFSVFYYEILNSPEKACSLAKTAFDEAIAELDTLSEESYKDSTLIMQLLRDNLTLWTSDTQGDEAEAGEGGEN

| Structure (SMILES) | pIC50 |
| --- | --- |
| Cc1ccc(NC(=O)c2cccc(C(F)(F)F)c2)cc1-c1cc(C2CCOCC2)nc(N2CCC(O)CC2)c1 [Example 186, N-(3-(2-(4-hydroxypiperidin-1-yl)-6-(tetrahydro-2H-pyran-4-yl)pyridin-4-yl)-4-methylphenyl)-3-(trifluoromethyl) benzamide] | 9.08 |
| Cc1ccc(NC(=O)c2ccnc(C(F)(F)F)c2)cc1-c1cc(C2CCOCC2)nc(N2CCC(O)CC2)c1 [Example 187, N-(3-(2-(4-hydroxypiperidin-1-yl)-6-(tetrahydro-2H-pyran-4-yl)pyridin-4-yl)-4-methylphenyl)-2-(trifluoromethyl) isonicotinamide] | 9.16 |
| CCC(F)(F)c1cc(C(=O)Nc2ccc(C)c(-c3cc(C4CCOCC4)nc(N4CCC(O)CC4)c3)c2)ccn1 [Example 188, 2-(1,1-difluoropropyl)-N-(3-(2-(4-hydroxypiperidin-1-yl)-6-(tetrahydro-2H-pyran-4-yl)pyridin-4-yl)-4-methylphenyl)-2-isonicotinamide] | 9.21 |
| Cc1ccc(NC(=O)c2cccc(C(F)(F)F)c2)cc1-c1cc(OCCO)nc(C2CCOCC2)c1 [Example 189, N-(3-(2-(2-hydroxyethoxy)-6-(tetrahydro-2H-pyran-4-yl)pyridin-4-yl)-4-methylphenyl)-3-(trifluoromethyl) benzamide] | 9.87 |
| Cc1ccc(NC(=O)c2ccnc(C(F)(F)F)c2)cc1-c1cc(OCCO)nc(C2CCOCC2)c1 [Example 190, N-(3-(2-(2-hydroxyethoxy)-6-(tetrahydro-2H-pyran-4-yl)pyridin-4-yl)-4-methylphenyl)-2-(trifluoromethyl) isonicotinamide] | 9.10 |
| Cc1ccc(NC(=O)c2ccnc(C(C)(F)F)c2)cc1-c1cc2c(c(C3CCOCC3)c1)NC(=O)C(C)(CO)O2 (stereo not drawn) [Example 191, 2-(1,1-difluoroethyl)-N-(3-(2-(hydroxymethyl)-2-methyl-3-oxo-5-(tetrahydro-2H-pyran-4-yl)-3,4-dihydro-2H-benzo [b][1,4]oxazin-7-yl)-4-methylphenyl) isonicotinamide] | 10.00 |
| Cc1ccc(NC(=O)c2cc(C(F)(F)F)ccn2)cc1-c1cc2c(c(C3CCOCC3)c1)NC(=O)C(C)(CO)O2 (stereo not drawn) [Example 192, N-(3-(2-(hydroxymethyl)-2-methyl-3-oxo-5-(tetrahydro-2H-pyran-4-yl)-3,4-dihydro-2H-benzo [b][1,4]oxazin-7-yl)-4-methylphenyl)-4-(trifluoromethyl) picolinamide] | 9.52 |
| Cc1ccc(NC(=O)c2cc(C(F)(F)F)cnn2)cc1-c1cc2c(c(C3CCOCC3)c1)NC(=O)C(C)(CO)O2 (stereo not drawn) [Example 195, N-(3-(2-(hydroxymethyl)-2-methyl-3-oxo-5-(tetrahydro-2H-pyran-4-yl)-3,4-dihydro-2H-benzo [b][1,4]oxazin-7-yl)-4-methylphenyl)-5-(trifluoromethyl) pyridazine-3-carboxamide] | 10.52 |
| Cc1ccc(NC(=O)c2ccnc(C(F)(F)F)c2)cc1-c1cc2c(c(C3CCOCC3)c1)OC(C)(C)C(=O)N2 [Example 196, N-(3-(2,2-dimethyl-3-oxo-8-(tetrahydro-2H-pyran-4-yl)-3,4-dihydro-2H-benzo[b][1,4]oxazin-6-yl)-4-methylphenyl)-2-(trifluoromethyl) isonicotinamide] | 9.40 |
| Cc1ccc(NC(=O)c2ccnc(C(C)(F)F)c2)cc1-c1cc2c(c(C3CCOCC3)c1)OC(C)(C)C(=O)N2 [Example 197, 2-(1,1-difluoroethyl)-N-(3-(2,2-dimethyl-3-oxo-8-(tetrahydro-2H-pyran-4-yl)-3,4-dihydro-2H-benzo[b][1,4]oxazin-6-yl)-4-methylphenyl) isonicotinamide] | 9.40 |
| Cc1ccc(NC(=O)c2cc(C(F)(F)F)ccn2)cc1-c1cc2c(c(C3CCOCC3)c1)OC(C)(C)C(=O)N2 [Example 199, N-(3-(2,2-dimethyl-3-oxo-8-(tetrahydro-2H-pyran-4-yl)-3,4-dihydro-2H-benzo[b][1,4]oxazin-6-yl)-4-methylphenyl)-4-(trifluoromethyl) picolinamide] | 9.00 |
| Cc1ccc(NC(=O)c2ccnc(C(F)(F)F)c2)cc1-c1cc2c(c(C3CCOCC3)c1)OC(C)(CO)C(=O)N2 (stereo not drawn) [Example 200, N-(3-(2-(hydroxymethyl)-2-methyl-3-oxo-8-(tetrahydro-2H-pyran-4-yl)-3,4-dihydro-2H-benzo[b][1,4]oxazin-6-yl)-4-methylphenyl)-2-(trifluoromethyl) isonicotinamide] | 9.30 |
| Cc1ccc(NC(=O)c2cnnc(C(F)(F)F)c2)cc1-c1cc2c(c(C3CCOCC3)c1)OC(C)(CO)C(=O)N2 (stereo not drawn) [Example 201, N-(3-(2-(hydroxymethyl)-2-methyl-3-oxo-8-(tetrahydro-2H-pyran-4-yl)-3,4-dihydro-2H-benzo[b][1,4]oxazin-6-yl)-4-methylphenyl)-6-(trifluoromethyl) pyridazine-4-carboxamide] | 10.00 |
| Cc1ccc(NC(=O)c2cc(C(F)(F)F)ccn2)cc1-c1cc2c(c(C3CCOCC3)c1)OC(C)(CO)C(=O)N2 (stereo not drawn) [Example 202, N-(3-(2-(hydroxymethyl)-2-methyl-3-oxo-8-(tetrahydro-2H-pyran-4-yl)-3,4-dihydro-2H-benzo[b][1,4]oxazin-6-yl)-4-methylphenyl)-4-(trifluoromethyl) picolinamide] | 9.52 |
| Cc1ccc(NC(=O)c2ccnc(C(F)(F)F)c2)cc1-c1cc(OCCO)nc(C2(C)CCOCC2)c1 [Example 205, N-(3-(2-(2-hydroxyethoxy)-6-(4-methyltetrahydro-2H-pyran-4-yl)pyridin-4-yl)-4-methylphenyl)-2-(trifluoromethyl) isonicotinamide] | 9.40 |
| Cc1ccc(NC(=O)c2ccnc(C(C)(F)F)c2)cc1-c1cc(OCCO)nc(C2(C)CCOCC2)c1 [Example 206, 2-(1,1-difluoroethyl)-N-(3-(2-(2-hydroxyethoxy)-6-(4-methyltetrahydro-2H-pyran-4-yl)pyridin-4-yl)-4-methylphenyl) isonicotinamide] | 9.40 |
| Cc1ccc(NC(=O)c2cnnc(C(F)(F)F)c2)cc1-c1cc(OCCO)nc(C2(C)CCOCC2)c1 [Example 207, N-(3-(2-(2-hydroxyethoxy)-6-(4-methyltetrahydro-2H-pyran-4-yl)pyridin-4-yl)-4-methylphenyl)-6-(trifluoromethyl) pyridazine-4-carboxamide] | 10.00 |
| Cc1ccc(NC(=O)c2ccnc(C(C)(C)C#N)c2)cc1-c1cc(OCCO)nc(C2(C)CCOCC2)c1 [Example 208, 2-(2-cyanopropan-2-yl)-N-(3-(2-(2-hydroxyethoxy)-6-(4-methyltetrahydro-2H-pyran-4-yl)pyridin-4-yl)-4-methylphenyl) isonicotinamide] | 9.30 |
| Cc1ccc(NC(=O)c2cc(C(F)(F)F)ccn2)cc1-c1cc(OCCO)nc(C2(C)CCOCC2)c1 [Example 209, N-(3-(2-(2-hydroxyethoxy)-6-(4-methyltetrahydro-2H-pyran-4-yl)pyridin-4-yl)-4-methylphenyl)-4-(trifluoromethyl) picolinamide] | 9.70 |
| Cc1ccc(NC(=O)c2ccnc(C(F)(F)F)c2)cc1-c1cc(OCCO)nc(C2(CF)CCOCC2)c1 [Example 210] | 9.52 |
| Cc1ccc(NC(=O)c2ccnc(C(C)(F)F)c2)cc1-c1cc(OCCO)nc(C2(CF)CCOCC2)c1 [Example 211, 2-(1,1-difluoroethyl)-N-(3-(2-(4-(fluoromethyl)tetrahydro-2H-pyran-4-yl)-6-(2-hydroxyethoxy)pyridin-4-yl)-4-methylphenyl) isonicotinamide] | 9.52 |
| Cc1ccc(NC(=O)c2cnnc(C(F)(F)F)c2)cc1-c1cc(OCCO)nc(C2(CF)CCOCC2)c1 [Example 212, N-(3-(2-(4-(fluoromethyl)tetrahydro-2H-pyran-4-yl)-6-(2-hydroxyethoxy)pyridin-4-yl)-4-methylphenyl)-6-(trifluoromethyl) pyridazine-4-carboxamide] | 10.10 |
| Cc1ccc(NC(=O)c2ccnc(C(C)(C)C#N)c2)cc1-c1cc(OCCO)nc(C2(CF)CCOCC2)c1 [Example 213, 2-(2-cyanopropan-2-yl)-N-(3-(2-(4-(fluoromethyl)tetrahydro-2H-pyran-4-yl)-6-(2-hydroxyethoxy)pyridin-4-yl)-4-methylphenyl) isonicotinamide] | 9.70 |
| Cc1ccc(NC(=O)c2cc(C(F)(F)F)ccn2)cc1-c1cc(OCCO)nc(C2(CF)CCOCC2)c1 [Example 214, N-(3-(2-(4-(fluoromethyl)tetrahydro-2H-pyran-4-yl)-6-(2-hydroxyethoxy)pyridin-4-yl)-4-methylphenyl)-4-(trifluoromethyl) picolinamide] | 9.52 |
| Cc1ccc(NC(=O)c2ccnc(C(F)(F)F)c2)cc1-c1cc(OCCO)nc(C2(CO)CCOCC2)c1 [Example 215] | 10.00 |
| Cc1ccc(NC(=O)c2ccnc(C(C)(F)F)c2)cc1-c1cc(OCCO)nc(C2(CO)CCOCC2)c1 [Example 216, 2-(1,1-difluoroethyl)-N-(3-(2-(2-hydroxyethoxy)-6-(4-(hydroxymethyl)tetrahydro-2H-pyran-4-yl)pyridin-4-yl)-4-methylphenyl) isonicotinamide] | 9.70 |
| Cc1ccc(NC(=O)c2cnnc(C(F)(F)F)c2)cc1-c1cc(OCCO)nc(C2(CO)CCOCC2)c1 [Example 217] | 9.52 |
| Cc1ccc(NC(=O)c2cc(C(F)(F)F)ccn2)cc1-c1cc(OCCO)nc(C2(CO)CCOCC2)c1 [Example 219] | 9.30 |
| Cc1nc2cc(C3CCOCC3)cc(-c3cc(NC(=O)c4ccnc(C(F)(F)F)c4)ccc3C)c2[nH]1 [Example 220, N-(4-methyl-3-(2-methyl-5-(tetrahydro-2H-pyran-4-yl)-1H-benzo[d]imidazol-7-yl)phenyl)-2-(trifluoromethyl) isonicotinamide] | 9.15 |
| Cc1nc2cc(C3CCOCC3)cc(-c3cc(NC(=O)c4cnnc(C(F)(F)F)c4)ccc3C)c2[nH]1 [Example 221, N-(4-methyl-3-(2-methyl-5-(tetrahydro-2H-pyran-4-yl)-1H-benzo[d]imidazol-7-yl)phenyl)-6-(trifluoromethyl) pyridazine-4-carboxamide] | 8.70 |
